Laboratory results from US10131663B2, “Chemical compounds” (AstraZeneca AB, priority 2016, dated 2018).
Values after ≈ are worked out from the molar mass of the structure shown.

Assays:
[1] = Thermodynamic solubility (shake-flask); type: physicochemical; settings: aqueous phosphate buffer, 25 °C, pH 7.4, aqueous buffer, thermodynamic from solid, aqueous phosphate buffer pH 7.4, 24 hours
Method in brief: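 Shake-flask method starting from 10 mM DMSO stocks, which are dried before use. Residue equilibrated 24 h at 25° C. in aqueous phosphate buffer, pH 7.4. Dissolved fraction separated and quantified by UPLC/MS/MS, with QC samples in each run.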

[2] = Human hepatocyte assay (metabolic stability); type: in vitro ADME; settings: human hepatocytes
Procedure: The metabolic stability of compounds in human hepatocytes was assessed using the following protocol: • 1. Prepare 10 mM stock solutions of compound and control compounds in appropriate solvent (DMSO). Place incubation medium (L-15 Medium) in a 37° C. water bath, and allow warming for at least 15 minutes prior to use. • 2. Add 80 μL of acetonitrile to each well of the 96-well deep well plate (quenching plate). • 3. In a new 96-well plate, dilute the 10 mM test compounds and the control compounds to 100 μM by combining 198 μL of acetonitrile and 2 μL of 10 mM stock. • 4. Remove a vial of cryopreserved (less than −150° C.) human hepatocytes (LiverPool™ 10 Donor Human hepatocytes obtained from Celsis IVT. Chicago, Ill. (Product No. S01205)) from storage, ensuring that vials remain at cryogenic temperatures until thawing process ensues. As quickly as possible, thaw the cells by placing the vial in a 37° C. water bath and gently shaking the vials. Vials should remain in water bath until all ice crystals have dissolved and are no longer visible. After thawing is complete, spray vial with 70% ethanol, transfer the vial to a bio-safety cabinet. • 5. Open the vial and pour the contents into the 50 mL conical tube containing thawing medium. Place the 50 mL conical tube into a centrifuge and spin at 100 g for 10 minutes. […] Using Cellometer® Vision, count cells and determine the viable cell density. Cells with poor viability (<80% viability) are not acceptable for use. […] Transfer 247.5 μL of hepatocytes into each well of a 96-well cell culture plate. Place the plate on Eppendorf Thermomixer Comfort plate shaker to allow the hepatocytes to warm for 10 minutes. • 8. Add 2.5 μL of 100 μM test compound or control compounds into an incubation well containing cells, mix to achieve a homogenous suspension at 0.5 min, which when achieved, will define the 0.5 min time point. At the 0.5 min time, transfer 20 μL of incubated mixture to wells in a “Quenching plate” followed by vortexing. • 9. Incubate the plate at 37° C. at 900 rpm on an Eppendorf Thermomixer Comfort plate shaker. […] Centrifuge the quenching plates for 20 minutes at 4,000 rpm. 4 different compounds are pooled into one cassette and used for LC/MS/MS analysis.
All calculations were carried out using Microsoft Excel. Peak areas were determined from extracted ion chromatograms. In vitro intrinsic clearance (in vitro Clint, in […]) of parent compound was determined by regression analysis of the Ln percent parent disappearance vs. time curve.
V=incubation volume (0.25 mL);
N=number of hepatocytes per well (0.25×10^6 cells).

[3] = Human Caco-2 passive permeability A to B Papp; type: in vitro ADME; settings: apical pH 6.5, basolateral pH 7.4, efflux inhibitor cocktail
Procedure: An automated assay was used to determine the passive permeability of compounds in Caco-2 cell monolayers carried out over 2 hours with an apical pH of 6.5 and basolateral pH of 7.4. The Caco-2 AB inhibition assay is carried out with chemical inhibition of the three major efflux transporters ABCB1 (P-gp), ABCG2 (BCRP) and ABCC2 (MRP2) in Caco-2 cells. Incubation of both apical and basolateral is carried out with a cocktail of inhibitors (50 μM quinidine, 20 μM sulfasalazine and 100 μM benzbromarone). Samples were analyzed through LC/MS/MS to estimate the apparent permeability coefficients (Papp) of compounds across Caco-2 cell monolayers and results are quoted in units of ×10^−6 cm/s.

[4] = molecular target: recombinant human Estrogen Receptor alpha ligand binding domain (ER alpha-LBD (GST)) (Homo sapiens (Human), UniProt P03372); test: ERα binding assay (LanthaScreen TR-FRET competition); settings: TR-FRET, displacement of Fluormone ES2
Method in brief: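 Competition binding to GST-tagged human ERα ligand-binding domain, read by LanthaScreen TR-FRET: Tb-anti-GST antibody labels the receptor and compounds displace a fluorescent tracer, lowering the signal. IC50 was taken from dose-response curve fitting.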

Chain of recombinant human Estrogen Receptor alpha ligand binding domain (ER alpha-LBD (GST)) (P03372 307-554): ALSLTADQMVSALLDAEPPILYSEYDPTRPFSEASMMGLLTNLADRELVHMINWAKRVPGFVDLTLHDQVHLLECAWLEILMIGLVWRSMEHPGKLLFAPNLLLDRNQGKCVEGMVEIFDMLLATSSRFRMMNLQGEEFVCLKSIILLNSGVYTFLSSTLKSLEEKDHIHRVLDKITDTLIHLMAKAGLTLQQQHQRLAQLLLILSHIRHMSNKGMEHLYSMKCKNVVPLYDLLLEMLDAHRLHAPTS

COc1cc(NC2CN(CCCF)C2)ccc1[C@@H]1c2ccc3[nH]ncc3c2C[C@@H](C)N1CC(F)(F)F [Example 28, 1-(3-fluoropropyl)-N-(3-methoxy-4-((6S,8R)-8-methyl-7-(2,2,2-trifluoroethyl)-6,7,8,9-tetrahydro-3H-pyrazolo[4,3-f]isoquinolin-6-yl)phenyl)azetidin-3-amine]
solubility at 24 h [1]: 150 µM (≈ 75.8 µg/mL) | hepatocyte CLint at 1 µM [2]: 5 µL/min/1e6 cells | Papp at 2 h [3]: 24 ×10⁻⁶ cm/s | IC50 [4]: 5.7 nM

COc1cc(NC2CN(CCCF)C2)ccc1[C@@H]1c2ccc3[nH]ncc3c2C[C@@H](C)N1CC(C)(F)F [Example 19, N-(4-((6S,8R)-7-(2,2-difluoropropyl)-8-methyl-6,7,8,9-tetrahydro-3H-pyrazolo[4,3-f]isoquinolin-6-yl)-3-methoxyphenyl)-1-(3-fluoropropyl)azetidin-3-amine]
solubility at 24 h [1]: 152 µM (≈ 76.2 µg/mL) | hepatocyte CLint at 1 µM [2]: 5 µL/min/1e6 cells | IC50 [4]: 2.6 nM

COc1cc(NC2CN(CCCF)C2)ccc1[C@@H]1c2ccc3[nH]ncc3c2C[C@@H](C)N1CC(C)(C)F [Example 64, N-(4-((6S,8R)-7-(2-fluoro-2-methylpropyl)-8-methyl-6,7,8,9-tetrahydro-3H-pyrazolo[4,3-f]isoquinolin-6-yl)-3-methoxyphenyl)-1-(3-fluoropropyl)azetidin-3-amine]
solubility at 24 h [1]: 474 µM (≈ 236 µg/mL) | IC50 [4]: 6.1 nM

C[C@@H]1Cc2c(ccc3[nH]ncc23)[C@@H](c2ccc(NC3CN(CCCF)C3)cn2)N1CC(F)F [Example 25, 6-((6S,8R)-7-(2,2-difluoroethyl)-8-methyl-6,7,8,9-tetrahydro-3H-pyrazolo[4,3-f]isoquinolin-6-yl)-N-(1-(3-fluoropropyl)azetidin-3-yl)pyridin-3-amine]
solubility at 24 h [1]: 964 µM (≈ 442 µg/mL) | hepatocyte CLint at 1 µM [2]: 5 µL/min/1e6 cells | Papp at 2 h [3]: 5.9 ×10⁻⁶ cm/s | IC50 [4]: 4.1 nM

C[C@@H]1Cc2c(ccc3[nH]ncc23)[C@@H](c2ncc(NC3CN(CCCF)C3)cc2F)N1CC1(F)CC1 [Example 18, 5-fluoro-6-((6S,8R)-7-((1-fluorocyclopropyl)methyl)-8-methyl-6,7,8,9-tetrahydro-3H-pyrazolo[4,3-f]isoquinolin-6-yl)-N-(1-(3-fluoropropyl)azetidin-3-yl)pyridin-3-amine]
solubility at 24 h [1]: 910 µM (≈ 441 µg/mL) | hepatocyte CLint at 1 µM [2]: 3 µL/min/1e6 cells | IC50 [4]: 29 nM

C[C@@H]1Cc2c(ccc3[nH]ncc23)[C@@H](c2ccc(NC3CN(CCCF)C3)cn2)N1CC1(F)CC1 [Example 3, 6-((6S,8R)-7-((1-fluorocyclopropyl)methyl)-8-methyl-6,7,8,9-tetrahydro-3H-pyrazolo[4,3-f]isoquinolin-6-yl)-N-(1-(3-fluoropropyl)azetidin-3-yl)pyridin-3-amine]
solubility at 24 h [1]: > 941 µM | hepatocyte CLint at 1 µM [2]: 5 µL/min/1e6 cells | IC50 [4]: 6.5 nM

C[C@@H]1Cc2c(ccc3[nH]nc(F)c23)[C@@H](c2ncc(NC3CN(CCCF)C3)cc2F)N1CC(F)(F)F [Example 33, 5-Fluoro-6-((6S,8R)-1-fluoro-8-methyl-7-(2,2,2-trifluoroethyl)-6,7,8,9-tetrahydro-3H-pyrazolo[4,3-f]isoquinolin-6-yl)-N-(1-(3-fluoropropyl)azetidin-3-yl)pyridin-3-amine]
solubility at 24 h [1]: 466 µM (≈ 239 µg/mL) | IC50 [4]: 1.4 nM

COc1cc(NC2CN(CCCF)C2)ccc1[C@@H]1c2ccc3[nH]ncc3c2C[C@@H](C)N1CC1(F)CC1 [Example 6, N-(4-((6S,8R)-7-((1-fluorocyclopropyl)methyl)-8-methyl-6,7,8,9-tetrahydro-3H-pyrazolo[4,3-f]isoquinolin-6-yl)-3-methoxyphenyl)-1-(3-fluoropropyl)azetidin-3-amine]
solubility at 24 h [1]: > 947 µM | hepatocyte CLint at 1 µM [2]: 2 µL/min/1e6 cells | Papp at 2 h [3]: 1.8 ×10⁻⁶ cm/s | IC50 [4]: 8.8 nM

COCC(F)(F)CN1[C@H](c2ccc(NC3CN(CCCF)C3)cn2)c2ccc3[nH]ncc3c2C[C@H]1C [Example 2, 6-((6S,8R)-7-(2,2-difluoro-3-methoxypropyl)-8-methyl-6,7,8,9-tetrahydro-3H-pyrazolo[4,3-f]isoquinolin-6-yl)-N-(1-(3-fluoropropyl)azetidin-3-yl)pyridin-3-amine]
solubility at 24 h [1]: 217 µM (≈ 109 µg/mL) | hepatocyte CLint at 1 µM [2]: 6 µL/min/1e6 cells | IC50 [4]: 2.8 nM

COc1cc(NC2CN(CCCF)C2)ccc1[C@@H]1c2ccc3[nH]ncc3c2C[C@@H](C)N1CC(F)F [Example 21, N-(4-((6S,8R)-7-(2,2-difluoroethyl)-8-methyl-6,7,8,9-tetrahydro-3H-pyrazolo[4,3-f]isoquinolin-6-yl)-3-methoxyphenyl)-1-(3-fluoropropyl)azetidin-3-amine]
solubility at 24 h [1]: 634 µM (≈ 309 µg/mL) | hepatocyte CLint at 1 µM [2]: 6 µL/min/1e6 cells | Papp at 2 h [3]: 14.1 ×10⁻⁶ cm/s | IC50 [4]: 2.1 nM

C[C@@H]1Cc2c(ccc3[nH]ncc23)[C@@H](c2ncc(NC3CN(CCCF)C3)cc2F)N1CC(F)(F)F [Example 30, 5-fluoro-N-(1-(3-fluoropropyl)azetidin-3-yl)-6-((6S,8R)-8-methyl-7-(2,2,2-trifluoroethyl)-6,7,8,9-tetrahydro-3H-pyrazolo[4,3-f]isoquinolin-6-yl)pyridin-3-amine]
solubility at 24 h [1]: 754 µM (≈ 373 µg/mL) | IC50 [4]: 1.8 nM

C[C@@H]1Cc2c(ccc3[nH]ncc23)[C@@H](c2ccc(NC3CN(CCCF)C3)cc2)N1CC(F)(F)F [Example 27, 1-(3-Fluoropropyl)-N-(4-((6R,8R)-8-methyl-7-(2,2,2-trifluoroethyl)-6,7,8,9-tetrahydro-3H-pyrazolo[4,3-f]isoquinolin-6-yl)phenyl)azetidin-3-amine]
solubility at 24 h [1]: 229 µM (≈ 109 µg/mL) | IC50 [4]: 0.81 nM

COCC(F)(F)CN1[C@H](c2ccc(NC3CN(CCCF)C3)cc2OC)c2ccc3[nH]ncc3c2C[C@H]1C [Example 1, N-(4-((6S,8R)-7-(2,2-difluoro-3-methoxypropyl)-8-methyl-6,7,8,9-tetrahydro-3H-pyrazolo[4,3-f]isoquinolin-6-yl)-3-methoxyphenyl)-1-(3-fluoropropyl)azetidin-3-amine]
solubility at 24 h [1]: 379 µM (≈ 201 µg/mL) | hepatocyte CLint at 1 µM [2]: 11 µL/min/1e6 cells | IC50 [4]: 3.7 nM

C[C@@H]1Cc2c(ccc3[nH]ncc23)[C@@H](c2ccc(NC3CN(CCCF)C3)cn2)N1CC(F)(F)CO [Example 16, 2,2-difluoro-3-((6S,8R)-6-(5-((1-(3-fluoropropyl)azetidin-3-yl)amino)pyridin-2-yl)-8-methyl-3,6,8,9-tetrahydro-7H-pyrazolo[4,3-f]isoquinolin-7-yl)propan-1-ol]
solubility at 24 h [1]: 982 µM (≈ 480 µg/mL) | Papp at 2 h [3]: 1.7 ×10⁻⁶ cm/s | IC50 [4]: 6.9 nM

C[C@@H]1Cc2c(ccc3[nH]ncc23)[C@@H](c2ccc(NC3CN(CCCF)C3)cc2)N1CC(F)F [Example 48, N-(4-((6R,8R)-7-(2,2-difluoroethyl)-8-methyl-6,7,8,9-tetrahydro-3H-pyrazolo[4,3-f]isoquinolin-6-yl)phenyl)-1-(3-fluoropropyl)azetidin-3-amine]
solubility at 24 h [1]: 582 µM (≈ 266 µg/mL) | hepatocyte CLint at 1 µM [2]: 4 µL/min/1e6 cells | IC50 [4]: 1.5 nM
